The text below walks through data of patent US20090246290A1, “Lipid metabolism improving agent containing hydrogen molecules” (priority 2006, published 2009).

Data set [1] deals with apoE knockout mice (apoE-KO mice). The settings on record: inhalation of gas mixture with approximately 2% hydrogen gas. From the text: (§1) The size of this container was as follows: W: 550 mm; L: 400 mm; and H: 300 mm.
(§2) Then, effects on body fat and the liver were examined. 9-week-old male apoE-KO mice were placed in cages (4 mice each). One group was designated as a control group and normal air was supplied thereto.

Data set [2] has the same test system. Conditions: 11 weeks after hydrogen administration, approximately 2% hydrogen gas inhalation.
Text: as §1, §2
11 weeks after hydrogen administration, the mice were subjected to measurement of muscle force. Upon measurement, each mouse was allowed to hold a mesh wire of the ceiling and the time period until it fell from the ceiling was determined.

For data set [3] the test system is unchanged. The settings on record: approximately 2% hydrogen gas inhalation, vs control group. The method, then: as §1, §2
Next, each mouse was analyzed with an X-ray CT for laboratory animals (LaTheta LCT-100A, Aloka Co., Ltd.). General anesthesia induction was carried out by supplying an anesthetic gas mixture (oxygen: 0.3 L/min; nitrous-oxide gas: 0.7 L/min; Sevofrane: 3% (Maruishi Pharmaceutical Co., Ltd.)) to each mouse with the use of a general anesthesia apparatus for small animals (Soft Lander, NeuroScience, Inc). CT scanning was carried out under anesthesia so as to obtain whole-body images (FIG. 9, upper images). Then, fat regions were determined based on CT values so as to specify subcutaneous fat and visceral fat (FIG. 9, lower images). Each cross-sectional area was multiplied by the thickness so as to obtain the volume, followed by estimation of the fat and muscle weights. […] In addition, fat percentages were obtained by the following equation.
Fat percentage (%)=fat [visceral fat+subcutaneous fat]/(fat [visceral fat+subcutaneous fat]+muscle)×100

Data set [4] shares this test system. Kind of data set: Serum items, organ weights and fat accumulated in the liver 12 weeks after hydrogen gas inhalation. In kind it is in vivo, mouse. The settings on record: 12 weeks hydrogen gas inhalation, vs control group. The protocol: The amounts of the following items in serum were measured: total cholesterol, LDL cholesterol, HDL cholesterol, neutral fat, AST, ALT, creatinine kinase, total protein, lactate dehydrogenase, urea nitrogen, total bilirubin, creatinine, alkaline phosphatase, choline esterase, and albumine. […] Each liver was fixed with 4% paraformaldehyde overnight, followed by dehydration with sucrose. Thereafter, frozen sections were prepared and stained with Oil-Red O. Then, the amount of lipids accumulated in the liver was calculated (FIG. 13A, images). The stained portions indicate fat accumulation.

The conditions of data set [5]: hydrogen pressure of 1 atmosphere, room temperature; cited from earlier work.

For the compound `[HH]` [hydrogen gas], the “weight increases vs control group” value in data set [1] is listed as “significantly suppressed”. Besides, the “muscle force: time period until mouse fell from mesh wire of the ceiling” value in data set [2] is “significantly long time”. In addition, in data set [3], the “amount of subcutaneous fat (CT)” value was “significantly decreased”; the “amount of total fat (CT)” value is on record as “significantly decreased”; the “amount of visceral fat (CT)” value is “significantly decreased”; the “fat percentage (fat/(fat+muscle) x100, CT)” value is on record as “more significantly decreased”. Further, in data set [4], the kidney weight entry is “significantly decreased”, the liver weight entry is on record as “significantly decreased”, the “serum ALT” value was “no difference was observed” and the “serum AST” value is recorded as “no difference was observed”. For the same compound, in data set [4], the “serum HDL cholesterol” value is “no difference was observed”, the “serum LDL cholesterol” value is given as “no difference was observed”, the serum albumine result was “no difference was observed” and the serum alkaline phosphatase result was “no difference was observed”. In data set [4], the serum choline esterase entry was “no difference was observed”, the serum creatinine result is “no difference was observed”, the serum creatinine kinase result is reported as “no difference was observed” and the serum lactate dehydrogenase result is given as “no difference was observed”. Besides, in data set [4], the serum neutral fat entry is “no difference was observed”, the serum total bilirubin result was “no difference was observed”, the serum total cholesterol entry is on record as “no difference was observed” and the serum total protein result was “no difference was observed”. In data set [4], the serum urea nitrogen entry is on record as “no difference was observed”. In data set [5], the “hydrogen dissolved in 1 L of water” value was “approximately 17.5 mL”.
